The supplement of paper PMC11208160

Experiment: recombinant UMI read abundance after kanamycin selection (control-corrected) (log10(CPM+1)); higher = more efficient recombination; extreme values may be limits of the assay; sequences stand for … in AGTGCAGAGAAAATCGGCCAGTTTTCTCTGCCTGCAGTCCGCATGCCGTGGGACCCCTTGGGTTCTAACCTGTTGCCTAGATTTATGCAGCGGACTGCCTTTCTCCCAAAGTGATAAACCGG…AGGTTGGTTTCACT; site = the 11-nt donor
Method in brief: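 Two replicates each of selected and unselected plating were used in this pooled Escherichia coli screen of donor and donor-binding-loop pairs for the IS621 bridge recombinase. Selection was with IPTG (0.07 mM) and kanamycin. Counts of recombinant UMIs, amplified across the donor–target junction, were converted to CPM, averaged, scaled by control-derived factors and reported as log10(CPM+1).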
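Further: IS621 bridge recombinase in Escherichia coli cells against a fixed T5 target plasmid.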

Row | Sequence | recombinant UMI read abundance (log10)
1 | TCCAACGCATGGACCGGTTTTCCCGGTAATCCGTATTTGCG (site TCCACCGCTCG) | 0
2 | TCCAACGCATGGACCGGTTTTCCCGGTAATCCGTATTTGCG (site TCCAGCGCTCG) | 0
3 | TCCAACGCATGGACCGGTTTTCCCGGTAATCCGTATTTGCG (site TCCATCGCTCG) | 0.00881
4 | TCCAAGGCATGGACCGGTTTTCCCGGTAATCCGTATTTGTC (site TCCAAGGCTGA) | 0
5 | TCCAATGCATGGACCGGTTTTCCCGGTAATCCGTATTTGCC (site TCCAATACTGG) | 0
6 | TCCAATGCATGGACCGGTTTTCCCGGTAATCCGTATTTGCC (site TCCAATCCTGG) | 0
7 | TCCAATGCATGGACCGGTTTTCCCGGTAATCCGTATTTGCC (site TCCAATGCTGG) | 0
8 | TCCAATGCATGGACCGGTTTTCCCGGTAATCCGTATTTGCC (site TCCAATTCTGG) | 0
9 | TCCAATTCATGGACCGGTTTTCCCGGTAATCCGTATTTGCA (site TCCAATTCTAG) | 0
10 | TCCAATTCATGGACCGGTTTTCCCGGTAATCCGTATTTGCA (site TCCAATTCTCG) | 0
11 | TCCAATTCATGGACCGGTTTTCCCGGTAATCCGTATTTGCA (site TCCAATTCTGG) | 0
12 | TCCAATTCATGGACCGGTTTTCCCGGTAATCCGTATTTGCA (site TCCAATTCTTG) | 0
13 | TCCAATTCATGGACCGGTTTTCCCGGTAATCCGTATTTGCG (site TCCAATTCTAG) | 0
14 | TCCAATTCATGGACCGGTTTTCCCGGTAATCCGTATTTGCG (site TCCAATTCTCG) | 0
15 | TCCAATTCATGGACCGGTTTTCCCGGTAATCCGTATTTGCG (site TCCAATTCTGG) | 0
16 | TCCAATTCATGGACCGGTTTTCCCGGTAATCCGTATTTGCG (site TCCAATTCTTG) | 0
17 | TCCACCACATGGACCGGTTTTCCCGGTAATCCGTATTTGCG (site TCCACCACTCG) | 0.0102
18 | TCCACCACATGGACCGGTTTTCCCGGTAATCCGTATTTGCG (site TCCACCCCTCG) | 0.0154
19 | TCCACCACATGGACCGGTTTTCCCGGTAATCCGTATTTGCG (site TCCACCGCTCG) | 0
20 | TCCACCACATGGACCGGTTTTCCCGGTAATCCGTATTTGCG (site TCCACCTCTCG) | 0.00608
21 | TCCACCGCATGGACCGGTTTTCCCGGTAATCCGTATTTGCG (site ACCACCGCTCG) | 0.0347
22 | TCCACCGCATGGACCGGTTTTCCCGGTAATCCGTATTTGCG (site CCCACCGCTCG) | 0.0205
23 | TCCACCGCATGGACCGGTTTTCCCGGTAATCCGTATTTGCG (site GCCACCGCTCG) | 0.0147
24 | TCCACCGCATGGACCGGTTTTCCCGGTAATCCGTATTTGCG (site TACACCGCTCG) | 0.0145
25 | TCCACCGCATGGACCGGTTTTCCCGGTAATCCGTATTTGCG (site TCAACCGCTCG) | 0.00833

Row | Sequence | recombinant UMI read abundance (log10)
26 | TCCACCGCATGGACCGGTTTTCCCGGTAATCCGTATTTGCG (site TCCAACGCTCG) | 0
27 | TCCACCGCATGGACCGGTTTTCCCGGTAATCCGTATTTGCG (site TCCACAGCTCG) | 0.00578
28 | TCCACCGCATGGACCGGTTTTCCCGGTAATCCGTATTTGCG (site TCCACCACTCG) | 0.00973
29 | TCCACCGCATGGACCGGTTTTCCCGGTAATCCGTATTTGCG (site TCCACCCCTCG) | 0.0195
30 | TCCACCGCATGGACCGGTTTTCCCGGTAATCCGTATTTGCG (site TCCACCGCTAG) | 0.00776
31 | TCCACCGCATGGACCGGTTTTCCCGGTAATCCGTATTTGCG (site TCCACCGCTCA) | 0.0193
32 | TCCACCGCATGGACCGGTTTTCCCGGTAATCCGTATTTGCG (site TCCACCGCTCC) | 0.0232
33 | TCCACCGCATGGACCGGTTTTCCCGGTAATCCGTATTTGCG (site TCCACCGCTCG) | 0.0267
34 | TCCACCGCATGGACCGGTTTTCCCGGTAATCCGTATTTGCG (site TCCACCGCTCT) | 0.0151
35 | TCCACCGCATGGACCGGTTTTCCCGGTAATCCGTATTTGCG (site TCCACCGCTGG) | 0
36 | TCCACCGCATGGACCGGTTTTCCCGGTAATCCGTATTTGCG (site TCCACCGCTTG) | 0
37 | TCCACCGCATGGACCGGTTTTCCCGGTAATCCGTATTTGCG (site TCCACCTCTCG) | 0.00739
38 | TCCACCGCATGGACCGGTTTTCCCGGTAATCCGTATTTGCG (site TCCACGGCTCG) | 0
39 | TCCACCGCATGGACCGGTTTTCCCGGTAATCCGTATTTGCG (site TCCACTGCTCG) | 0.0248
40 | TCCACCGCATGGACCGGTTTTCCCGGTAATCCGTATTTGCG (site TCCAGCGCTCG) | 0.0215
41 | TCCACCGCATGGACCGGTTTTCCCGGTAATCCGTATTTGCG (site TCCATCGCTCG) | 0.0351
42 | TCCACCGCATGGACCGGTTTTCCCGGTAATCCGTATTTGCG (site TCCCCCGCTCG) | 0.1
43 | TCCACCGCATGGACCGGTTTTCCCGGTAATCCGTATTTGCG (site TCCGCCGCTCG) | 0.0234
44 | TCCACCGCATGGACCGGTTTTCCCGGTAATCCGTATTTGCG (site TCCTCCGCTCG) | 0.0203
45 | TCCACCGCATGGACCGGTTTTCCCGGTAATCCGTATTTGCG (site TCGACCGCTCG) | 0.023
46 | TCCACCGCATGGACCGGTTTTCCCGGTAATCCGTATTTGCG (site TCTACCGCTCG) | 0.0356
47 | TCCACCGCATGGACCGGTTTTCCCGGTAATCCGTATTTGCG (site TGCACCGCTCG) | 0.0462
48 | TCCACCGCATGGACCGGTTTTCCCGGTAATCCGTATTTGCG (site TTCACCGCTCG) | 0.00717
49 | TCCACCTCATGGACCGGTTTTCCCGGTAATCCGTATTTGCG (site TCCACCACTCG) | 0.00715
50 | TCCACCTCATGGACCGGTTTTCCCGGTAATCCGTATTTGCG (site TCCACCCCTCG) | 0.0186

Row | Sequence | recombinant UMI read abundance (log10)
51 | TCCACCTCATGGACCGGTTTTCCCGGTAATCCGTATTTGCG (site TCCACCGCTCG) | 0.0129
52 | TCCACCTCATGGACCGGTTTTCCCGGTAATCCGTATTTGCG (site TCCACCTCTCG) | 0.0255
53 | TCCACGCCATGGACCGGTTTTCCCGGTAATCCGTATTTGTA (site ACCACGCCTTA) | 0.0141
54 | TCCACGCCATGGACCGGTTTTCCCGGTAATCCGTATTTGTA (site CCCACGCCTTA) | 0.038
55 | TCCACGCCATGGACCGGTTTTCCCGGTAATCCGTATTTGTA (site GCCACGCCTTA) | 0.00791
56 | TCCACGCCATGGACCGGTTTTCCCGGTAATCCGTATTTGTA (site TCCACGCCTTA) | 0.0284
57 | TCCACGGCATGGACCGGTTTTCCCGGTAATCCGTATTTGCG (site TCCACAGCTCG) | 0.0432
58 | TCCACGGCATGGACCGGTTTTCCCGGTAATCCGTATTTGCG (site TCCACCGCTCG) | 0.023
59 | TCCACGGCATGGACCGGTTTTCCCGGTAATCCGTATTTGCG (site TCCACGGCTCG) | 0.0249
60 | TCCACGGCATGGACCGGTTTTCCCGGTAATCCGTATTTGCG (site TCCACTGCTCG) | 0
61 | TCCACTTCATGGACCGGTTTTCCCGGTAATCCGTATTTGCC (site TCCAATTCTGG) | 0
62 | TCCACTTCATGGACCGGTTTTCCCGGTAATCCGTATTTGCC (site TCCACTTCTGG) | 0
63 | TCCACTTCATGGACCGGTTTTCCCGGTAATCCGTATTTGCC (site TCCAGTTCTGG) | 0
64 | TCCACTTCATGGACCGGTTTTCCCGGTAATCCGTATTTGCC (site TCCATTTCTGG) | 0
65 | TCCAGATCATGGACCGGTTTTCCCGGTAATCCGTATTTGGG (site TCCAGATCTCC) | 0
66 | TCCAGTGCATGGACCGGTTTTCCCGGTAATCCGTATTTGCT (site TCCAGTGCTAG) | 0
67 | TCCATTCCATGGACCGGTTTTCCCGGTAATCCGTATTTGGA (site TCCATTCCTTC) | 0.0134
68 | TCCCAAACATGGACCGGTTTTCCCGGTAATCCGTATTTGCT (site TCCCAAACTAG) | 0.0138
69 | TCCCACCCATGGACCGGTTTTCCCGGTAATCCGTATTTGAT (site TCCCACCCTAT) | 0.0298
70 | TCCCGCCCATGGACCGGTTTTCCCGGTAATCCGTATTTGCT (site TCCCGCCCTAG) | 0.00858
71 | TCCCTTCCATGGACCGGTTTTCCCGGTAATCCGTATTTGCG (site TCCCTTCCTCG) | 0
72 | TCCGCTGCATGGACCGGTTTTCCCGGTAATCCGTATTTGAA (site TCCGCTGCTTT) | 0
73 | TCCGGTGCATGGACCGGTTTTCCCGGTAATCCGTATTTGCC (site TCCGGTGCTGG) | 0
74 | TCCTACCCATGGACCGGTTTTCCCGGTAATCCGTATTTGGT (site TCCTACCCTAC) | 0.00951
75 | TCCTAGCCATGGACCGGTTTTCCCGGTAATCCGTATTTGTA (site TCCTAGCCTTA) | 0.0223
